# In patent US5387419A, “System for controlled release of antiarrhythmic agents” (The University of Michigan, priority 1993, dated 1995):
# Tests used:
# [1] = system: Ventricular tachycardia (VT) induced by rapid ventricular pacing; experiment: In vivo ventricular pacing study: conversion of ventricular tachycardia induced by rapid ventricular pacing; set-up: species or system dog (male mongrel dogs); conditions: for Effectiveness in converting ventricular tachycardia: in words, controlled release dosage form, epicardial; for Conversion / Peak % Increase in VT Threshold: mean ± standard error; for Conversion: patches: lidocaine 28% in Tecoflex (N 16), procainamide 30% in Thyomer (7), amiodarone 30% in Thyomer with 10% polyethyleneglycol 200 (3), NiCl2 50% in Thyomer (4); for Peak % Increase in VT Threshold: same patches: lidocaine/Tecoflex, procainamide/Thyomer, amiodarone/Thyomer with polyethyleneglycol, NiCl2/Thyomer
# From the text: Ventricular tachycardia was induced and maintained by rapid ventricular pacing in an open-chest dog model using male mongrel dogs (10-15 kg). Three sets of bipolar epicardial electrodes were placed at 2 cm distances from the left ventricular apex toward the base of the heart. A Grass Model 8 stimulator (Grass Instruments, delivered continuous electrical stimulation as 2-msec square wave impulses with a 50-msec cycle length via a stimulus isolation unit (Bloom Associates, Reading, Pa.). The stimulus isolation unit also repeatedly monitored the pacing current thresholds. After induction of ventricular tachycardia, a controlled release dosage form of the present invention in the shape of a patch of the drug-loaded polymeric matrix material was placed adjacent to the stimulating electrode. The time required to convert the ventricular tachycardia to sinus rhythm was measured, as well as the time course of the quantitative change for sustaining the induction of ventricular tachycardia. The effects of controlled release were monitored for up to 4 hours after conversion to normal sinus rhythm.
# All other dosage forms were fabricated by dissolving the therapeutic agent in dimethylacetamide at a concentration of 100 mg/ml therapeutic agent. This solution was further dissolved in a 10% solution of a Thyomer polyurethane and solvent cast into a 0.2 mm films. […] Controls comprised patches of each polymeric matrix material.
# [2] = system: Ischemia-induced ventricular tachycardia; experiment: In vivo acute ischemia-induced ventricular tachycardia study; set-up: species or system dog; conditions: for VT (per/minute): number of VT episodes per minute following epicardial placement: average for N dogs, patches (dose mg/kg/2hr): lidocaine 28% Tecoflex (0.23, N 5), propranolol 30% MPU-5 (0.14, 6), D-sotalol 30% MPU-5 (0.20, 9), verapamil 30% MPU-5 (0.30, 11); for Effectiveness against ischemia-induced ventricular tachycardia: in words, epicardial controlled release
# Description: Controlled release dosage forms of the present invention have been successful in preventing ischemia-induced ventricular tachycardia in a canine model. Ventricular occlusions of the left anterior descending coronary artery of a dog were produced by exposing and isolating the artery in a dog under anesthesia. A snare with a sliding closure was placed around the artery. Ventricular tachycardia was produced by closing the snare for 10 minutes to shut off the blood supply to left ventricle. The snare was opened for an hour, and then the snare was closed for 10 minutes. This procedure can be repeated up six times and simulates a heart attack. Ventricular tachycardia (VT) was defined as the occurrence of 3 or more sequential ventricular premature beats. The efficacy of various controlled release dosage forms of the present invention were documented by continuous recording of the electrophysiologic data on a Hewlett Packard Physiologic Records, and an 8-channel analogue tape deck (Hewlett Packard, Philadelphia, Pa.).
# The data is expressed as the average for the number N of dogs per group. Episodes of VT were paced at one per minutes.
# [3] = oral; cited from earlier work
# normal cardiac function = experiment: Other studies: effects of transmyocardial lidocaine on normal cardiac function; format: in vivo; conditions: lidocaine administered by transmyocardial route
SMILES,Peak % Increase in VT Threshold [1] [%],VT (per/minute): number of VT episodes per minute following epicardial placement [2],also measured
"CCN(CC)CCNC(=O)c1ccc(N)cc1 [Procainamide, procainamide]",206.7 ± 172.6,–,Effectiveness in converting ventricular tachycardia [1]: effective in converting ventricular tachycardia; Conversion [1]: 4.05 ± 3.15 min
"[Cl][Ni][Cl] [NiCl2, nickel chloride]",122.6 ± 101.3,–,Effectiveness in converting ventricular tachycardia [1]: effective to convert tachycardia to normal sinus rhythm; Conversion [1]: 2.08 ± 1.71 min
"CC(C)NC[C@@H](O)c1ccc(NS(C)(=O)=O)cc1 [D-Sotalol, d-sotalol]",–,.046 ± .11 per/minute,Effectiveness against ischemia-induced ventricular tachycardia [2]: the most effective for arrhythmias due to acute myocardial ischemia
"CC(C)NCC(O)COc1cccc2ccccc12 (stereo not shown) [Propranolol, propranolol]",–,1.22 ± .12 per/minute,–
"COc1ccc(CCN(C)CCCC(C#N)(c2ccc(OC)c(OC)c2)C(C)C)cc1OC (stereo not shown) [Verapamil, verapamil]",–,0.10 ± .03 per/minute,Effectiveness against ischemia-induced ventricular tachycardia [2]: the most effective for arrhythmias due to acute myocardial ischemia
"CCCCc1oc2ccccc2c1C(=O)c1cc(I)c(OCCN(CC)CC)c(I)c1 [Amiodarone, amiodarone]",36.1 ± 12.7,–,"Severe side effects, share of patients [3]: over 70%"
"CCN(CC)CC(=O)Nc1c(C)cccc1C [Lidocaine, lidocaine]",367.7 ± 183.1,0.6 ± 0.2 per/minute,Other effects on normal cardiac function (normal cardiac function): no other significant effects on normal cardiac function
